Laboratory results taken from DBAASP.
≈ marks a conversion by molar mass, not a printed value.

Legend:
Test in all cases: ≥ marks a high value that may be exact or a test limit, other limits are often not marked, values filed in µg/mL are converted to µM
[1] = system: Candida albicans ATCC 64550
[2] = system: Streptococcus pyogenes GAS M1T1
[3] = system: Pseudomonas aeruginosa PAO1
[4] = system: Xanthomonas axonopodis pv. phaseoli ATCC 9563
[5] = system: Pseudomonas syringae
[6] = system: Escherichia coli BL21
[7] = system: Bacillus subtilis CGMCC 1.3376
[8] = system: Klebsiella pneumoniae CGMCC 1.1736
[9] = system: Staphylococcus aureus CGMCC 1.8721
[10] = system: Staphylococcus epidermidis CGMCC 1.4260
[11] = system: Pseudomonas aeruginosa CGMCC 1.2421
[12] = system: Escherichia coli CGMCC 1.8732
[13] = system: Staphylococcus aureus ATCC 6538
[14] = system: Escherichia coli K-12
[15] = system: Micrococcus luteus NCIMB 13267
[16] = system: Pseudomonas aeruginosa ATCC 27853
[17] = system: Bacillus subtilis ATCC 6633
[18] = system: Escherichia coli ATCC 11775
[19] = system: Staphylococcus epidermidis ATCC 12228
[20] = system: Enterococcus faecalis ATCC 7080
[21] = system: Staphylococcus aureus ATCC BAA-44
[22] = system: Acinetobacter baumannii ATCC 19606
[23] = system: Pseudomonas aeruginosa ATCC 25668
[24] = system: Staphylococcus aureus ATCC 33591
[25] = system: Staphylococcus epidermidis ATCC 51625
[26] = system: Staphylococcus aureus ATCC 29213
[27] = system: Streptococcus mutans UA159
[28] = system: Streptococcus gordonii ATCC 10558
[29] = system: Streptococcus sanguinis ATCC 49295
[30] = system: Streptococcus mutans GS-5
[31] = system: Escherichia coli ATCC 25322
[32] = system: Staphylococcus aureus ATCC 25923
[33] = system: Escherichia coli
[34] = system: Vibrio parahaemolyticus
[35] = system: Streptococcus pyogenes
[36] = system: Staphylococcus aureus
[37] = system: Aeromonas hydrophila
[38] = system: Vibrio alginolyticus
[39] = system: Vibrio fluvialis

Compound `CC(=O)N[C@@H](C)C(=O)N[C@@H](C)C(=O)N[C@@H](C)C(=O)N[C@@H](C)C(=O)N[C@@H](C)C(=O)N[C@@H](C)C(=O)N[C@@H](C)C(=O)N[C@@H](C)C(=O)N[C@@H](C)C(=O)N[C@@H](CCCCN)C(N)=O` [AAAAAAAAAK] has an MIC [1] of at least 100 µM.

For `CC[C@H](C)[C@H](NC(=O)[C@H](CCCCN)NC(=O)[C@H](CC(N)=O)NC(=O)[C@H](CCCCN)NC(=O)[C@H](CC(C)C)NC(=O)[C@H](Cc1ccc(O)cc1)NC(=O)[C@H](CCC(N)=O)NC(=O)[C@H](CCCN=C(N)N)NC(=O)[C@@H](NC(=O)[C@@H](NC(=O)[C@H](CCCCN)NC(=O)[C@H](CCCCN)NC(=O)CNC(=O)[C@H](C)N)[C@@H](C)O)[C@@H](C)CC)C(=O)N[C@@H](CCCCN)C(=O)N[C@@H](CCCCN)C(=O)N[C@@H](CCCCN)C(=O)N[C@@H](Cc1c[nH]c2ccccc12)C(=O)N[C@@H](CCCN=C(N)N)C(=O)N[C@@H](CCCCN)C(=O)N[C@@H](C)C(=O)N[C@H](C(=O)N[C@H](C(=O)N[C@@H](C)C(=O)N[C@@H](Cc1c[nH]c2ccccc12)C(=O)O)[C@@H](C)CC)C(C)C` [AGKKTIRQYLKNKIKKKWRKAVIAW], the MIC [2] was 8 µM (≈ 24.5 µg/mL), the MIC [3] was 10 µM (≈ 30.6 µg/mL) and the MIC [4] was 1 µM (≈ 3.06 µg/mL). It also gave an MIC [5] of 8 µM (≈ 24.5 µg/mL) and an MIC [6] of 8 µM (≈ 24.5 µg/mL).

Work on `CC[C@H](C)[C@H](NC(=O)[C@H](C)N)C(=O)NCC(=O)N[C@@H](CO)C(=O)N[C@H](C(=O)N[C@@H](CC(C)C)C(=O)NCC(=O)N[C@@H](CCCN=C(N)N)C(=O)N[C@@H](CC(C)C)C(=O)N[C@@H](C)C(=O)N[C@@H](CCCCN)C(=O)NCC(=O)N[C@@H](CC(C)C)C(=O)N1CCC[C@H]1C(=O)N[C@H](C(=O)N[C@@H](CC(C)C)C(=O)N[C@@H](CCCCN)C(=O)N[C@@H](CO)C(=O)N[C@@H](Cc1c[nH]c2ccccc12)C(=O)N[C@H](C(=O)N[C@@H](CCCCN)C(=O)N[C@@H](CC(N)=O)C(=O)N[C@@H](CCCN=C(N)N)C(N)=O)[C@@H](C)CC)[C@@H](C)O)[C@@H](C)CC` [AIGSILGRLAKGLPTLKSWIKNR] yielded an MIC [7] of 12.5 µM (≈ 31.2 µg/mL), an MIC [8] of 25 µM (≈ 62.3 µg/mL) and an MIC [9] of at least 100 µM. It also gave an MIC [10] of 6.25 µM (≈ 15.6 µg/mL), an MIC [11] of 25 µM (≈ 62.3 µg/mL) and an MIC [12] of 25 µM (≈ 62.3 µg/mL).

For `CC(C)C[C@H](NC(=O)[C@H](CCCCN)NC(=O)[C@H](C)NC(=O)[C@H](CC(C)C)NC(=O)[C@H](CCCCN)NC(=O)[C@H](CCC(N)=O)NC(=O)[C@H](CCCCN)NC(=O)[C@H](CC(C)C)NC(=O)[C@H](CCCCN)NC(=O)[C@H](CCC(N)=O)NC(=O)[C@H](CC(C)C)NC(=O)[C@H](CCCCN)NC(=O)[C@H](C)NC(=O)[C@H](CCCCN)NC(=O)[C@H](CC(C)C)NC(=O)[C@H](CCCCN)NC(=O)[C@H](C)NC(=O)[C@H](CC(C)C)NC(=O)[C@H](CCCCN)NC(=O)[C@H](CCC(N)=O)NC(=O)[C@@H](N)CCCCN)C(=O)O` [KQKLAKLKAKLQKLKQKLAKL], the MIC [13] was over 50 µM, the MIC [14] was 3 µM (≈ 7.34 µg/mL) and the MIC [15] was 12 µM (≈ 29.4 µg/mL). For the same compound, the MIC [16] was 12 µM (≈ 29.4 µg/mL) and the MIC [17] was 6 µM (≈ 14.7 µg/mL).

With `CC(C)C[C@H](NC(=O)[C@H](Cc1c[nH]c2ccccc12)NC(=O)[C@H](CCCCN)NC(=O)[C@H](CC(C)C)NC(=O)[C@H](Cc1c[nH]c2ccccc12)NC(=O)[C@H](CCCCN)NC(=O)[C@H](CCCCN)NC(=O)[C@H](CC(C)C)NC(=O)[C@H](Cc1c[nH]c2ccccc12)NC(=O)[C@@H](N)CCCCN)C(=O)N[C@@H](CCCCN)C(=O)N[C@@H](CCCCN)C(N)=O` [KWLKKWLKWLKK] the MIC [18] was 1.19 µM (≈ 2 µg/mL), the MIC [19] was 1.19 µM (≈ 2 µg/mL) and the MIC [20] was 9.49 µM (≈ 16 µg/mL). For the same compound, the MIC [21] was 2.37 µM (≈ 4 µg/mL), the MIC [22] was 4.75 µM (≈ 8 µg/mL) and the MIC [23] was 1.19 µM (≈ 2 µg/mL). For the same compound, the MIC [24] was 1.19 µM (≈ 2 µg/mL), the MIC [25] was 1.19 µM (≈ 2 µg/mL) and the MIC [26] was 1.19 µM (≈ 2 µg/mL).

In the case of `CC(C)C[C@H](NC(=O)[C@H](CCCN=C(N)N)NC(=O)[C@H](Cc1ccccc1)NC(=O)[C@H](Cc1ccccc1)NC(=O)[C@@H](NC(=O)[C@H](CO)NC(=O)[C@@H](N)CC(C)C)[C@@H](C)O)C(=O)N[C@@H](Cc1ccccc1)C(=O)N[C@@H](CC(N)=O)C(=O)N[C@@H](CCCN=C(N)N)C(=O)N[C@@H](CO)C(=O)N[C@@H](Cc1ccccc1)C(=O)N[C@H](C(=O)N[C@@H](CCC(N)=O)C(=O)NCC(=O)N[C@@H](CCCN=C(N)N)C(=O)N[C@@H](CCCN=C(N)N)C(=O)N[C@@H](CCCN=C(N)N)C(=O)N[C@@H](CCCN=C(N)N)C(=O)N[C@@H](CO)C(=O)N[C@H](C(=O)N[C@@H](CCC(N)=O)C(=O)N[C@@H](Cc1c[nH]c2ccccc12)C(=O)N[C@@H](CS)C(=O)N[C@@H](C)C(=O)O)C(C)C)[C@@H](C)O` [LSTFFRLFNRSFTQGRRRRSVQWCA], the MIC [27] is reported as 3.42 µM (≈ 10.7 µg/mL), the MIC [28] is reported as 16 µM (≈ 49.8 µg/mL) and the MIC [29] is reported as 31.9 µM (≈ 99.6 µg/mL). The MIC [30] was 4.27 µM (≈ 13.3 µg/mL).

For `CC(C)C[C@H](NC(=O)CNC(=O)[C@H](CC(N)=O)NC(=O)[C@@H](NC(=O)[C@@H](NC(=O)CNC(=O)[C@H](CC(C)C)NC(=O)[C@H](C)NC(=O)[C@H](CCCCN)NC(=O)[C@H](CC(N)=O)NC(=O)[C@H](CC(C)C)NC(=O)[C@H](CC(C)C)NC(=O)[C@@H](N)CC(N)=O)[C@@H](C)O)C(C)C)C(=O)N[C@@H](CC(C)C)C(=O)NCC(=O)N[C@@H](CCCN=C(N)N)C(=O)N[C@@H](CO)C(=O)O` [NLLNKALGTVNGLLGRS], the MIC [31] was at least 64 µM and the MIC [32] was 32 µM (≈ 55.7 µg/mL).

`CC[C@H](C)[C@H](NC(=O)[C@H](CCCCN)NC(=O)[C@H](Cc1cnc[nH]1)NC(=O)[C@H](CC(C)C)NC(=O)[C@H](CC(C)C)NC(=O)[C@H](Cc1ccccc1)NC(=O)[C@H](CC(N)=O)NC(=O)[C@@H](N)C(C)C)C(=O)N[C@@H](Cc1ccc(O)cc1)C(=O)NCC(=O)N[C@@H](CC(N)=O)C(=O)N[C@H](C(=O)N[C@@H](CCCN=C(N)N)C(=O)N[C@@H](CC(=O)O)C(=O)N[C@@H](CO)C(=O)O)[C@@H](C)CC` [VNFLLHKIYGNIRDS] gave an MIC [33] of 2.18 µM (≈ 3.9 µg/mL), an MIC [34] of 18 µM (≈ 32.2 µg/mL) and an MIC [35] of at least 34.9 µM. The MIC [36] was 34.9 µM (≈ 62.5 µg/mL), the MIC [37] was 2.18 µM (≈ 3.9 µg/mL) and the MIC [38] was 2.18 µM (≈ 3.9 µg/mL). The MIC [39] was at least 34.9 µM.
